Laboratory results reported in patent publication US20240139210A1, “TREATMENT OF NF-KB-MEDIATED DISEASE” (ReveraGen BioPharma, Inc., priority 2020, published 2024).
Where two headings read alike, the source gives them in different places.

Columns and labels:
[1] = test system: participants with DMD; conditions: CINRG DNHS, deflazacort n = 94, prednisone n = 80; cited from earlier work
[2] = test system: boys with DMD; conditions: cited from earlier work; for LS Mean change in height percentiles for age: 12-month treatment period, DMD
[3] = test system: boys with DMD; test: CINRG 12-month prednisone clinical trial, external comparator; type: in vivo, human; conditions: vamorolone 18-month treatment versus prednisone trial 12-month treatment
Procedure: As with the CINRG DNHS comparators, group-matching criteria were prespecified in the iSAP, and 2 independent statisticians carried out the participant matching. […] There was no corresponding 12-month assessment in vamorolone-treated participants. (Assessments of vamorolone-treated trial participants were 0, 3, 6, and 18 months).
Participants in the corticosteroid-treated CINRG DNHS group were treated for at least 18 months, but the total duration, dose, and regimens varied.

[4] = test system: ambulant boys aged 4 to <7 years with DMD; test: VBP15-004 growth (height Z scores); type: in vivo, human; conditions: prednisone 0.75 mg/kg/day
Text: (§1) The second period of 24 weeks, where all participants receive vamorolone treatment on either of the two dose levels, will continue to capture additional longer-term safety and tolerability data.

[5] = test system: ambulant boys aged 4 to <7 years with DMD; test: VBP15-004 bone turnover biomarkers; type: in vivo, human; conditions: Prednisone 0.75 mg (N = 24)
[6] = test system: ambulant boys aged 4 to <7 years with DMD; test: VBP15-004 adverse events; parameters: species or system human; conditions: male, human, in vivo, 24 weeks
Text: as §1
The study completion rate at 24 weeks was 94% (or 114 of 121 participants).
Pre-specified AESIs typically for corticosteroids were higher in prednisone-treated subjects than vamorolone-treated subjects after 24 weeks of treatment (Table 10).

[7] = 0.9 mg/kg/day deflazacort (n = 68), 0.75 mg/kg/day prednisone (n = 63)

SMILES | Incidence of physician-reported Cushingoid [1] [%] | Incidence of physician-reported behavior change [1] [%] | Incidence of physician-reported weight gain [1] [%] | Incidence of physician-reported Cushingoid [2, 7] [%] | Incidence of physician-reported behavior change [2, 7] [%] | Incidence of physician-reported hypertrichosis/hirsutism [2, 7] [%] | Incidence of physician-reported weight gain [2, 7] [%] | LS Mean change in height percentiles for age [2] [percentile] | LS Mean change in height percentiles for age ([2]; listed as deflazacort) [percentile] | Mean BMI z-score, LS mean difference (SE), ANCOVA [3] | Mean height percentile for age, LS mean difference (SE), ANCOVA [3] | change in height Z scores from baseline to Week 24 [4] | Osteocalcin, mean (SEM) change at Week 24 [5] | Procollagen 1 N-Terminal Propeptide (P1NP), mean (SEM) change at Week 24 [5] | Type I Collagen C-Telopeptides (CTX), mean (SEM) change at Week 24 [5] | clinically relevant psychiatric events, subjects [6] [%] | incidence of behavior problems [6] [%] | moderate/severe behavior problems, subjects [6] [%]
CC(=O)OCC(=O)[C@@]12N=C(C)O[C@@H]1C[C@H]1[C@@H]3CCC4=CC(=O)C=C[C@]4(C)[C@H]3[C@@H](O)C[C@@]12C [Deflazacort, deflazacort] | 72 | 33 | 63 | 60.3 | 9 | 35 | 27.9 | −11.4 | −11.43 |  |  |  |  |  |  |  |  | 
C[C@]12C=CC(=O)C=C1CC[C@@H]1[C@@H]2C(=O)C[C@@]2(C)[C@H]1CC[C@]2(O)C(=O)CO [Prednisone, prednisone] |  |  |  |  |  |  |  |  |  | 0.066 (0.193) | 10.37 (3.86) percentile | growth deceleration | −15.2 (2.7) ng/ml | −134 (22) ng/mL | −300 (43) pg/mL | 19.4 | 32.3 | 22.6
